Measurements: the supplement of paper PMC10307832

Experiments:
Assay in all cases: relative viability (nuclei count vs DMSO), 5 days (fraction); higher = more cells survive
IU1-47 + Linsitinib = compound: CC1=CC(=C(N1C2=CC=C(C=C2)Cl)C)C(=O)CN3CCCCC3 [IU1-47] + C[C@]1(O)C[C@@H](c2nc(-c3ccc4ccc(-c5ccccc5)nc4c3)c3c(N)nccn32)C1 [Linsitinib] (partner 1 µM)
Procedure, shortened: (§1)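 Dosing by pin tool came one day after lung cancer cell lines were seeded in 1536-well plates, using either one drug or a fixed anchor-drug dose plus five library-drug doses (not always all listed) in √10 steps. After 5 days, nuclei were counted on 4× images. Relative viability is treated-well nuclei count divided by vehicle-well nuclei count, and values are medians of duplicate plates.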

IU1-47 + Dasatinib = compound: CC1=CC(=C(N1C2=CC=C(C=C2)Cl)C)C(=O)CN3CCCCC3 [IU1-47] + Cc1nc(Nc2ncc(C(=O)Nc3c(C)cccc3Cl)s2)cc(N2CCN(CCO)CC2)n1 [Dasatinib] (partner 0.075 µM)
Procedure, shortened: as §1

IU1-47 + Pemetrexed = compound: CC1=CC(=C(N1C2=CC=C(C=C2)Cl)C)C(=O)CN3CCCCC3 [IU1-47] + Nc1nc2[nH]cc(CCc3ccc(C(=O)N[C@@H](CCC(=O)O)C(=O)O)cc3)c2c(=O)[nH]1 [Pemetrexed] (partner 0.2 µM)
Procedure, shortened: as §1

FG-4592 + Lapatinib = compound: Cc1nc(C(=O)NCC(=O)O)c(O)c2ccc(Oc3ccccc3)cc12 [FG-4592] + CS(=O)(=O)CCNCc1ccc(-c2ccc3ncnc(Nc4ccc(OCc5cccc(F)c5)c(Cl)c4)c3c2)o1 [Lapatinib] (partner 2 µM)
Procedure, shortened: as §1

| Cell Line | relative viability (IU1-47 + Linsitinib; first compound 0.08 µM) | relative viability (IU1-47 + Linsitinib; first compound 0.253 µM) | relative viability (IU1-47 + Linsitinib; first compound 0.8 µM) | relative viability (IU1-47 + Linsitinib; first compound 2.53 µM) | relative viability (IU1-47 + Linsitinib; first compound 8 µM) | relative viability (IU1-47 + Dasatinib; first compound 0.08 µM) | relative viability (IU1-47 + Dasatinib; first compound 0.253 µM) | relative viability (IU1-47 + Dasatinib; first compound 0.8 µM) | relative viability (IU1-47 + Dasatinib; first compound 2.53 µM) | relative viability (IU1-47 + Dasatinib; first compound 8 µM) | relative viability (IU1-47 + Pemetrexed; first compound 0.08 µM) | relative viability (IU1-47 + Pemetrexed; first compound 0.253 µM) | relative viability (IU1-47 + Pemetrexed; first compound 0.8 µM) | relative viability (IU1-47 + Pemetrexed; first compound 2.53 µM) | relative viability (IU1-47 + Pemetrexed; first compound 8 µM) | relative viability (FG-4592 + Lapatinib; first compound 0.08 µM) | relative viability (FG-4592 + Lapatinib; first compound 0.253 µM) | relative viability (FG-4592 + Lapatinib; first compound 0.8 µM) | relative viability (FG-4592 + Lapatinib; first compound 2.53 µM) | relative viability (FG-4592 + Lapatinib; first compound 8 µM) |
| --- | --- | --- | --- | --- | --- | --- | --- | --- | --- | --- | --- | --- | --- | --- | --- | --- | --- | --- | --- | --- |
| HCC-15 | 0.931 | 0.967 | 0.9 | 0.917 | 0.801 | 0.687 | 0.749 | 0.685 | 0.564 | 0.519 | 0.229 | 0.219 | 0.226 | 0.218 | 0.228 | 0.883 | 0.706 | 0.852 | 0.871 | 0.944 |
| COR-L23 | 0.943 | 1 | 0.943 | 0.899 | 0.982 | 0.517 | 0.504 | 0.585 | 0.537 | 0.551 | 0.212 | 0.18 | 0.199 | 0.195 | 0.208 | 0.906 | 0.914 | 0.965 | 0.838 | 0.81 |
| HCC-78 | 0.555 | 0.506 | 0.521 | 0.474 | 0.417 | 0.378 | 0.389 | 0.324 | 0.373 | 0.336 | 0.898 | 0.889 | 0.929 | 0.865 | 0.862 | 0.696 | 0.733 | 0.701 | 0.892 | 0.9 |
| NCI-H2087 | 0.947 | 0.953 | 0.93 | 1.14 | 1 | 0.963 | 0.973 | 1.12 | – | 0.681 | 0.668 | 0.637 | 0.693 | 0.716 | 0.556 | 0.888 | 0.943 | 1.37 | 1.1 | 1.15 |
| BEN | 1.02 | 0.934 | 1.08 | 0.915 | 0.863 | 0.296 | 0.358 | 0.394 | – | 0.304 | 0.732 | 0.765 | 0.899 | 0.523 | 0.674 | 0.495 | 0.507 | 0.555 | 0.822 | 0.475 |
| EKVX | 1.19 | 1.18 | 0.943 | 1.1 | 0.861 | 0.564 | 0.577 | 0.691 | 0.34 | 0.389 | 0.407 | 0.406 | 0.423 | – | 0.453 | 0.226 | 0.213 | 0.195 | 0.278 | 0.375 |
| LXF-289 | 0.984 | 0.998 | 1.02 | 0.954 | 0.954 | 0.219 | 0.24 | 0.179 | 0.223 | 0.209 | 0.888 | 0.886 | 0.851 | 0.945 | 0.856 | 0.93 | 0.881 | 0.937 | 0.946 | 0.945 |
| NCI-H650 | 0.831 | 0.966 | 0.924 | 0.796 | 0.875 | 0.457 | 0.439 | 0.476 | 0.427 | 0.445 | 1.01 | 1.1 | 0.965 | 0.878 | 1 | 0.633 | 1.03 | 0.744 | 0.728 | 0.802 |
| NCI-H2085 | 0.828 | 0.917 | 1.06 | 0.912 | 0.846 | 0.218 | 0.269 | 0.242 | 0.228 | 0.252 | 0.925 | 0.818 | 0.846 | 0.83 | 0.885 | 0.633 | 0.747 | 0.607 | 0.723 | 0.824 |
| NCI-H1793 | 0.822 | 0.868 | 0.976 | – | 0.689 | 0.458 | 0.298 | 0.403 | – | 0.409 | 0.691 | – | 0.802 | 0.798 | 0.629 | 0.592 | 0.468 | – | 0.646 | 0.62 |
| LC-2-ad | 0.863 | 0.91 | 0.845 | 0.853 | 0.918 | 0.466 | 0.524 | 0.523 | 0.491 | 0.42 | 0.284 | 0.283 | 0.268 | – | 0.262 | 0.913 | 0.915 | 0.94 | 0.904 | 1.05 |
| COR-L 105 | 1.02 | 0.875 | 1.08 | 1.03 | 0.89 | 0.307 | 0.303 | 0.332 | 0.248 | 0.307 | 1.12 | 1.17 | 0.93 | 1.12 | 1.02 | 0.348 | 0.342 | 0.264 | 0.382 | 0.329 |
| NCI-H1355 | 0.873 | 0.844 | 0.933 | 0.74 | 0.686 | 0.655 | 0.798 | 0.706 | – | 0.667 | 1.06 | 1.08 | 1.12 | – | 1.07 | 1.03 | 0.939 | – | 0.955 | 0.823 |
| H3255 | 1.16 | 1.17 | 0.957 | 0.905 | 0.914 | 0.371 | 0.491 | 0.385 | 0.366 | 0.387 | 0.624 | 0.544 | 0.63 | 0.605 | 0.511 | 0.275 | 0.235 | 0.271 | 0.257 | 0.26 |
| NCI-H1993 | 0.762 | 0.732 | 0.749 | 0.76 | 0.73 | 0.497 | 0.732 | 0.651 | 0.548 | 0.571 | 0.631 | 0.588 | 0.672 | 0.346 | 0.482 | 0.848 | 0.885 | 0.744 | 0.929 | 0.719 |
